Measurements as given in patent US20250134853A1, “COMPOUNDS AND METHODS FOR USING GALLOYLATED POLYPHENOLS TO TREAT DISEASES MEDIATED BY THIOL ISOMERASES” (Beth Israel Deaconess Medical Center, Inc., priority 2023, published 2025).
Entries after “also recorded” stand apart in the source; their conditions may differ.

Tests used:
[1] = system: PDI domain fragments (a, a′, ab, abb′, b′xa′); experiment: Di-eosin-GSSG assay on isolated PDI domain fragments; type: biochemical; settings: a, ab, b′xa′, abb′ fragments; PGHG at 10 μM
Protocol: Di-eosin-GSSG disulfide reductase assay. The probe di-eosin glutathione disulfide, di-eosin-GSSG, was prepared by incubating 100 μM of GSSG with 1 mM of eosin isothiocyanate in 100 mM potassium phosphate containing 2 mM EDTA (pH 7.4), at 25° C. overnight in the dark. The mixture was passed down a PD-10 column and different fractions were collected. A fold change of fluorescence (Ex: 520 nm, Em: 550 nm) was calculated using samples subjected to either vehicle or 20 mM of DTT. Any fraction with a fold change >5 was kept. Using a stock of 10 mM eosin isothiocyanate, a standard curve was generated and concentration of samples were determined accordingly. Di-eosin-GSSG cleavage of purified thiol isomerases and PDI domains was monitored in a 96-well fluorescence plate format. PDI, CGXC-PDI variants, ERp5, ERp57, ERp46 and PDI domains were assayed at 50 nM in the presence or absence of the indicated small molecules. The assay included a thiol isomerase assay buffer (39 mM KH2PO4, 61 mM K2HPO4, 2 mM EDTA, 5 M DTT, pH 7.4) and 150 nM of the di-eosin-GSSG probe. The increase in fluorescence was determined for 60 min by excitation at 520 nm and emission at 550 nm in a Synergy Biotek 4. The reduction of 150 nM di-eosin-GSSG by 5 μM DTT in the presence or absence of mentioned small molecule or proteins served as a negative control.

ERp72 = target: T1, ERp72 (Homo sapiens, UniProt P13667); experiment: Di-eosin-GSSG disulfide reductase assay, ERp72; type: biochemical
T1 construct: recombinant His-tagged full-length ERp5, ERp72; His-tag; made in house; host or cells: Escherichia coli Origami B (DE3)
T1 sequence (P13667 21-645): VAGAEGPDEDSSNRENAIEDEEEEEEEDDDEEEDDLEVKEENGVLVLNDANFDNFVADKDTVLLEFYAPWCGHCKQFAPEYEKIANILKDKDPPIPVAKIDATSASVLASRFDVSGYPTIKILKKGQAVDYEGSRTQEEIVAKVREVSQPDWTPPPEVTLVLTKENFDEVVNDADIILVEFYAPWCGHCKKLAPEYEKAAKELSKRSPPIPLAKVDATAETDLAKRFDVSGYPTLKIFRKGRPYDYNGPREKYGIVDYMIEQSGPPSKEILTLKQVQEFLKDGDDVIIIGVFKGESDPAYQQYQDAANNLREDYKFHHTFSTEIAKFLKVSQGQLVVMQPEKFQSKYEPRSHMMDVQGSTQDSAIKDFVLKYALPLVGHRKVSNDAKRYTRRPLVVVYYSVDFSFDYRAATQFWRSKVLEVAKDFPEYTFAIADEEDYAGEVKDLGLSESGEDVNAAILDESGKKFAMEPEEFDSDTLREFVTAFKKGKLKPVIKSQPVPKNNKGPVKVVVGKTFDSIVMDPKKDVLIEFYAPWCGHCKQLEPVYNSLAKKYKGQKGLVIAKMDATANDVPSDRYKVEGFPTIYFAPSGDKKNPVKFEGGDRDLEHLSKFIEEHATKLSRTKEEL
Description: Recombinant protein purification. Recombinant ‘double-tagged’ (streptavidin-binding protein-tagged and FLAG-tagged) full-length PDI, ERp57, recombinant His-tagged full-length ERp5, ERp72, PDI domain fragments, and PDI mutant were cloned into a pET-15b vector at the NdeI and BamHI sites and transformed into Escherichia coli Origami B (DE3) cells (EMD Chemicals). The recombinant proteins were expressed and isolated by affinity chromatography with complete His-Tag purification resin (Roche Applied Science) or Pierce High-Capacity Streptavidin Agarose beads and purified on a Superdex 200 (GE Healthcare).
Di-eosin-GSSG disulfide reductase assay. […] Any fraction with a fold change >5 was kept.

[2] = system: thrombus formation following laser injury of cremaster arterioles; experiment: Laser-injury thrombosis model; type: in vivo, mice
Protocol: Laser-injury thrombosis model. Thrombus formation in response to laser injury was measured as described previously. See Grover S P, et al. J. Thromb. Haemost. 18:3078-85, 2020; Koseoglu S, et al. Arterioscler. Thromb. Vasc. Biol. 33:481-8, 2013; and Matsuura S, et al. Arterioscler. Thromb. Vasc. Biol. 40:e262-e72, 2020. Briefly, cremaster muscle arterioles were injured using a MicroPoint Laser System (Andor, Belfast, UK). Platelet and fibrin accumulation were measured by infusion of Dylight 649-labeled anti-platelet (CD42b; 0.1 μg/g body weight; Emfret Analytics) and DyLight 488-labeled anti-fibrin (clone 59D8; 0.3 μg/g) antibodies through a jugular vein catheter. Data were acquired before and after laser injury using the brightfield, 488/520 nm, and 640/670 nm channels. Images were captured for 250 seconds at 2 frames/s using a CCD camera (ORCA Flash 4.0, Hamamatsu Photonics, Japan) on an AX-70 fluorescence microscope (Olympus, Japan). Data were analyzed using Slidebook 6.0 (Intelligent Imaging Innovations). Data from 16 to 30 thrombi were used to determine the median value of the integrated fluorescence intensity to account for variability in thrombus formation under any given experimental condition. AUC was calculated for individual thrombi and normalized to injury lengths to evaluate statistical significance. Injury lengths were determined as previously described in Grover S P, et al. J. Thromb. Haemost. 18:3078-85, 2020.
The differences in platelet accumulation and fibrin formation were not secondary to differences in the extent of laser injury since injury size between control and PGHG-treated mice was indistinguishable (FIG. 10E).

PDI [3] = target: T2, PDI (Homo sapiens, UniProt P07237); experiment: Insulin reductase assay; type: biochemical; settings: PGHG incubated with PDI for 15 minutes
T2 construct: FLAG; made in house; host or cells: Escherichia coli Origami B (DE3)
Protocol: Insulin reductase assay. Insulin was prepared by mixing 12.5 mg/mL insulin in 50 mM Tris-HCl, pH 8. 1 M HCl was carefully added to drop the pH to 2.0 for solution clarification. Once the solution clarifies, 1 M NaOH was added to rapidly adjust the pH back to 8.0. The solution was then adjusted to 1.5 mM (10 mg/mL) with 50 mM Tris-HCl, aliquoted and stored in −20° C. until use. 2× concentrations of thiol isomerases were prepared (final concentrations as indicated in each assay) and mixed with 1.2 mM DTT (final 0.3 mM) and 0.4 mM insulin (final 0.1 mM) using a thiol isomerase activity assay buffer. Insulin precipitation from enzyme-mediated reduction was assayed in 96-well clear bottom plates at 650 nm absorption.

SARS-CoV-2 M^pro = SARS-CoV-2 M^pro (Severe acute respiratory syndrome coronavirus 2, UniProt P0DTD1); experiment: SARS-CoV-2 M^pro proteolytic activity; type: biochemical
PDI [4] = target: T2, PDI; experiment: SDS-PAGE molecular weight shift (alkylation of PDI free thiols); type: biochemical
Description: FIG. 5 is an image of gel showing detection of PDI free thiol by the labeling of acetamido maleimidylstilbene disulfonic acid (AMS), which shifts the protein to a higher apparent molecular weight.
4-acetomido-4′-maleimidylstilbene-2,2′ disulfonic acid (AMS), which shifts the mass of the protein by 500 Da for every cysteine alkylated, was used as a positive control. […] N-ethylmaleimide (NEM) was used for a control experiment because covalent alkylation of the free thiols will expectedly prevent PDI activity (FIG. 6A).

PDI [5] = target: T2, PDI; experiment: Jump dilution reversibility, di-eosin-GSSG assay; type: biochemical; settings: 50 μM, 30 min, then 100-fold dilution
Protocol: FIGS. 6A and 6B are plots showing % PDI activity. […] To test reversibility, the samples containing 50 μM compounds were then diluted 1:100. PDI activity was evaluated using a di-eosin-GSSG reductase assay. Data represented as mean SEM.
After 30 minutes of equilibration, the PDI-inhibitor mixture was diluted 100-fold with thiol isomerase assay buffer where the final concentration of enzyme is 0.2 μM and compounds at 500 nM or 50 μM. Di-eosin-GSSG was added to a final concentration of 300 nM and the assay was immediately recorded for 1 h.

[6] = system: bleeding following tail clip; experiment: Tail clip assay of hemostasis; settings: 25 μg/g PGHG, intraperitoneal injection
[7] = 25 μg/g PGHG, intraperitoneal injection
[8] = PGHG 25 mg/kg (Example 1, FIG. 1)
[9] = intravenous infusion, 25 μg/g PGHG

T2 sequence (P07237 18-508): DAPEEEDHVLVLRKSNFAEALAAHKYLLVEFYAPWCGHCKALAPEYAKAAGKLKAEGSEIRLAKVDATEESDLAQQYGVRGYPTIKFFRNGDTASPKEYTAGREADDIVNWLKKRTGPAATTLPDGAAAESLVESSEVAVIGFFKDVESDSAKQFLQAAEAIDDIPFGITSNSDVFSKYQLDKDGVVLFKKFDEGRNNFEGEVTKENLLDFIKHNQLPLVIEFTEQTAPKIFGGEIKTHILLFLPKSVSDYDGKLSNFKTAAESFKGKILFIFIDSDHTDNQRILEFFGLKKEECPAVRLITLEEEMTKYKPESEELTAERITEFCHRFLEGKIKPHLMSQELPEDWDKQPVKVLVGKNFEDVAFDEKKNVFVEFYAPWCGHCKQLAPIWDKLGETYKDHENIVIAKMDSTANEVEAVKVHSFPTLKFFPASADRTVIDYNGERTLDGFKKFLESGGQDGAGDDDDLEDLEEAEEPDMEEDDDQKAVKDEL

O=C(O[C@@H]1[C@@H](O)[C@H](Oc2cc(O)c3c(c2)O[C@H](c2ccccc2)CC3=O)O[C@@H]2COC(=O)c3cc(O)c(O)c(O)c3-c3c(cc(O)c(O)c3O)C(=O)O[C@@H]12)c1cc(O)c(O)c(O)c1 [PGHG, pinocembrin 7-O-(3″-galloyl-4″,6″-(S)-hexahydroxydiphenoyl)-beta-D-glucose]
inhibition of isolated PDI fragments [1]: inhibited a and a′ fragments as well as ab, b′xa′ and abb′x fragments; also recorded: inhibited activity of all fragments including the isolated the a and a′ domains
IC50 (ERp72): 7.8 µM
mean fibrin fluorescence [2, 7]: 33.44±7.53 % of control
mean platelet accumulation [2, 7]: 29.56±9.08 % of control
fibrin formation [2, 8]: 21±3 % of controls
platelet accumulation [2, 8]: 18±6 % of control levels
fibrin formation, fluorescence compared to controls [2, 9]: 21±3.7%
platelet accumulation, fluorescence compared to controls [2, 9]: 18±6.2%
inhibition of PDI in insulin reductase assay (in words) (PDI [3]): low micromolar range
IC50 (SARS-CoV-2 M^pro): 6.5 µM
shift in molecular weight of PDI in SDS polyacrylamide gel (PDI [4]): did not induce a shift in molecular weight
reversibility of PDI inhibition (PDI [5]): inhibitory activity was lost following a 100-fold dilution
time to cessation of bleeding [6]: did not prolong the time to cessation of bleeding; also recorded: did not prolong the time required for bleeding to subside
total blood loss [6]: nor the total amount of blood loss; also recorded: nor did it significantly affect total blood loss
